Measured values as given in PubChem BioAssay (NCI).
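Dose response: 5 concentrations. Exposure: 48 h. Format: 96-well plates. Endpoint: linear interpolation; highest concentration if not reached. The concentration for full growth arrest is given as TGI.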

Columns and labels:
Assay in all cases: NCI-60 cell line screen, 48 h
[1] = test system: SF-539 CNS
[2] = test system: BT-549 breast
[3] = test system: MCF7 breast
[4] = test system: SNB-75 CNS
[5] = test system: A549 NSCLC
[6] = test system: HOP-92 NSCLC
[7] = test system: HCC-2998 colon
[8] = test system: MDA-N
[9] = test system: UACC-257 melanoma
[10] = test system: IGROV1 ovarian
[11] = test system: OVCAR-4 ovarian
[12] = test system: HCT-15 colon
[13] = test system: HCT-116 colon
[14] = test system: M14 melanoma
[15] = test system: HOP-62 NSCLC
[16] = test system: SK-OV-3 ovarian
[17] = test system: SW-620 colon
[18] = test system: OVCAR-5 ovarian
[19] = test system: MOLT-4 leukemia
[20] = test system: HS 578T breast
[21] = test system: RXF 393 renal
[22] = test system: HL-60(TB) leukemia
[23] = test system: ACHN renal
[24] = test system: UO-31 renal
[25] = test system: SR leukemia
[26] = test system: RPMI-8226 leukemia
[27] = test system: OVCAR-8 ovarian
[28] = test system: SNB-19 CNS
[29] = test system: UACC-62 melanoma
[30] = test system: MDA-MB-435
[31] = test system: NCI-H460 lung
[32] = test system: SF-295 CNS
[33] = test system: CCRF-CEM leukemia
[34] = test system: SN12C renal
[35] = test system: K-562 leukemia
[36] = test system: SK-MEL-2 melanoma
[37] = test system: HT29 colon
[38] = test system: TK-10 renal
[39] = test system: NCI-H226 lung
[40] = test system: U251 CNS
[41] = test system: T-47D breast
[42] = test system: SK-MEL-5 melanoma
[43] = test system: LOX IMVI melanoma
[44] = test system: NCI/ADR-RES ovarian
[45] = test system: COLO 205 colon
[46] = test system: KM12 colon
[47] = test system: MDA-MB-231 breast
[48] = test system: NCI-H522 lung
[49] = test system: A498 renal
[50] = test system: 786-0 renal
[51] = test system: SK-MEL-28 melanoma
[52] = test system: CAKI-1 renal
[53] = test system: MALME-3M melanoma
[54] = test system: DU-145 prostate
[55] = test system: NCI-H23 lung
[56] = test system: OVCAR-3 ovarian
[57] = test system: EKVX NSCLC
[58] = test system: PC-3 prostate
[59] = test system: SF-268 CNS
[60] = test system: DMS 114 small cell lung
[61] = test system: DLD-1 colon
[62] = test system: LXFL 529 NSCLC
[63] = test system: DMS 273 small cell lung
[64] = test system: KM20L2 colon

Measured: TGI

NCCc1c[nH]c2ccc(OC(=O)C(=O)O)cc12
23.2 µM: [22]
> 100 µM: [1] | [2] | [3] | [4] | [5] | [6] | [7] | [8] | [9] | [10] | [11] | [12] | [13] | [14] | [15] | [16] | [17] | [18] | [19] | [20] | [21] | [23] | [24] | [25] | [26] | [27] | [28] | [29] | [30] | [31] | [32] | [33] | [34] | [35] | [36] | [37] | [38] | [39] | [40] | [41] | [42] | [43] | [44] | [45] | [46] | [47] | [48] | [49] | [50] | [51] | [52] | [53] | [54] | [55] | [56] | [57] | [58] | [59]

CC(C)N(C(=O)C12C3C4C1C1C2C3C41C(=O)O)C(C)C (centres undefined)
> 100 µM: [1] | [4] | [5] | [7] | [9] | [10] | [11] | [12] | [13] | [14] | [15] | [16] | [17] | [18] | [19] | [22] | [23] | [24] | [60] | [26] | [27] | [28] | [29] | [31] | [32] | [33] | [34] | [35] | [36] | [37] | [38] | [61] | [39] | [42] | [62] | [43] | [45] | [46] | [63] | [64] | [48] | [49] | [50] | [51] | [52] | [53] | [55] | [56] | [57] | [59]
